From patent US20260022143A1, “Cyclic Peptide Inhibitors of IL-23” (JANSSEN PHARMACEUTICA NV, priority 2022, published 2026)
Counter-ions that a name gives are not always drawn. Like-named read-outs stand apart in the source and are kept apart here. Positions of bridges follow the written chain, without caps; N, C: chain ends. Non-standard residues stand in square brackets, D forms with d. Residues, ends and D or L forms follow the SMILES beside them. *: point of attachment. Me3N+(CH2)2O(CH2)2O(CH2)2CO = C[N+](C)(C)CCOCCOCCC(=O)*; CH2CH2OCH2CH2OCH2CH2NMe3+ = C[N+](C)(C)CCOCCOCC*; Trp(7-Me) = Cc1cccc2c(C[C@H](N)C(=O)O)c[nH]c12; dLys(Me3) = C[N+](C)(C)CCCC[C@@H](N)C(=O)O; Dab(NMeAc) = CC(=O)N(C)CC[C@H](N)C(=O)O; 2Nal = N[C@@H](Cc1ccc2ccccc2c1)C(=O)O; AEF = NCCOc1ccc(C[C@H](N)C(=O)O)cc1; dNMeY = CN[C@H](Cc1ccc(O)cc1)C(=O)O; 3Pal = N[C@@H](Cc1cccnc1)C(=O)O; Lys(Me) = CNCCCC[C@H](N)C(=O)O; X7 = COCCOCCOCCOCCOCCOCCC(=O)*; Agb = N=C(N)NCC[C@H](N)C(=O)O; Pen = CC(C)(S)[C@H](N)C(=O)O; αMeK = C[C@](N)(CCCCN)C(=O)O; X66 = C[N+]1(CCC*)CCOCC1; Thp = NC1(C(=O)O)CCOCC1; Me2NCH2CH2 = CN(C)CC*; Tfa = O=C(C(F)(F)F)*; Sar = CNCC(=O)O

Test: Exposed Polar Surface Area (EPSA)
Format: physicochemical
Settings: SFC on Chirex 3014 column, sample 1 mM DMSO stock
In short: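 Chirex 3014 column, 35 °C, 4 mL/min; CO2/MeOH + 20 mM NH4 formate, 5→60% modifier at 20%/min. UV/MS detection. EPSA (Å^2) from retention time vs 8-standard calibration line; duplicates; 1 mM DMSO stock injected undiluted.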

SMILES | EPSA (read-out: EPSA) | EPSA
CC(=O)N(C)CCCC[C@@H]1NC(=O)[C@H](Cc2c[nH]c3c(C)cccc23)NC(=O)[C@H]([C@@H](C)O)NC(=O)[C@H](CC(=O)N(C)C)NC(=O)[C@@H](NC(=O)CCOCCOCC[N+](C)(C)C)C(C)(C)SSC(C)(C)[C@@H](C(=O)N[C@@H](Cc2ccc(OCCC[N+]3(C)CCOCC3)cc2)C(=O)N[C@@H](Cc2ccc3ccccc3c2)C(=O)NC2(C(=O)N[C@@H](CCCCN(C)C(C)=O)C(=O)N[C@@H](CC(N)=O)C(=O)N[C@@H](Cc3cccnc3)C(=O)N(C)CC(=O)N(C)C)CCOCC2)NC1=O [compound 274, cPEG3aCO-Pen(3)-N(N(Me)2)-T-7MeW-K(NMeac)-Pen(3)-MMoPF-2Nal-THP-K(NMeAc)-N-3Pya-Sar-CON(Me)2] ({Me3N+(CH2)2O(CH2)2O(CH2)2CO}-[Pen]D(NMe2)T[Trp(7-Me)][Lys(Me)](Ac)[Pen]Y(X66)[2Nal][Thp][Lys(Me)](Ac)N[3Pal][Sar]-NMe2; disulfide 1-6) | 153 A^2 | 
COCCOCCOCCOCCOCCOCCC(=O)N(C)CCCC[C@@H]1NC(=O)[C@H](Cc2c[nH]c3c(C)cccc23)NC(=O)[C@H]([C@@H](C)O)NC(=O)[C@H](CC(N)=O)NC(=O)[C@@H](NC(C)=O)C(C)(C)SSC(C)(C)[C@@H](C(=O)N[C@@H](Cc2ccc(OCCN)cc2)C(=O)N[C@@H](Cc2ccc3ccccc3c2)C(=O)NC2(C(=O)N[C@@H](CCCCNC(C)=O)C(=O)N[C@@H](CC(N)=O)C(=O)N[C@@H](Cc3cccnc3)C(=O)N(C)CC(N)=O)CCOCC2)NC1=O [compound 124] (Ac-[Pen]NT[Trp(7-Me)][Lys(Me)](X7)[Pen][AEF][2Nal][Thp]K(Ac)N[3Pal][Sar]-NH2; disulfide 1-6) | 158 A^2 | 
CC(=O)NCCCC[C@@H]1NC(=O)[C@H](Cc2c[nH]c3c(C)cccc23)NC(=O)[C@H]([C@@H](C)O)NC(=O)[C@H](CC(N)=O)NC(=O)[C@@H](NC(C)=O)C(C)(C)SSC(C)(C)[C@@H](C(=O)N[C@@H](Cc2ccc(OCCN)cc2)C(=O)N[C@@H](Cc2ccc3ccccc3c2)C(=O)NC2(C(=O)N[C@@H](CCCCNC(=O)CCOCCOCC[N+](C)(C)C)C(=O)N[C@@H](CC(N)=O)C(=O)N[C@@H](Cc3cccnc3)C(=O)N(C)CC(N)=O)CCOCC2)NC1=O [compound 86] (Ac-[Pen]NT[Trp(7-Me)]K(Ac)[Pen][AEF][2Nal][Thp]K(Me3N+(CH2)2O(CH2)2O(CH2)2CO)N[3Pal][Sar]-NH2; disulfide 1-6) | 150 A^2 | 
CC(=O)NCCCC[C@@H]1NC(=O)[C@H](Cc2c[nH]c3c(C)cccc23)NC(=O)[C@H]([C@@H](C)O)NC(=O)[C@H](CC(N)=O)NC(=O)[C@@H](NC(=O)C(F)(F)F)C(C)(C)SSC(C)(C)[C@@H](C(=O)N[C@@H](Cc2ccc(OCCN(C)C)cc2)C(=O)N[C@@H](Cc2ccc3ccccc3c2)C(=O)NC2(C(=O)N[C@@H](CCCCNC(C)=O)C(=O)N[C@@H](CC(N)=O)C(=O)N[C@@H](Cc3cccnc3)C(=O)N(C)CC(N)=O)CCOCC2)NC1=O [compound 53] (Tfa-[Pen]NT[Trp(7-Me)]K(Ac)[Pen]Y(Me2NCH2CH2)[2Nal][Thp]K(Ac)N[3Pal][Sar]-NH2; disulfide 1-6 (inferred)) | 155 A^2 | 
CC(=O)N[C@@H]1C(=O)N[C@@H](CC(N)=O)C(=O)N[C@@H]([C@@H](C)O)C(=O)N[C@@H](Cc2c[nH]c3c(C)cccc23)C(=O)N[C@@H](CCC(=O)N(C)C)C(=O)N[C@H](C(=O)N[C@@H](Cc2ccc(OCCN)cc2)C(=O)N[C@@H](Cc2ccc3ccccc3c2)C(=O)NC2(C(=O)N[C@@H](CCC(=O)N(C)C)C(=O)N[C@@H](CC(N)=O)C(=O)N[C@@H](Cc3cccnc3)C(=O)N(C)CC(N)=O)CCOCC2)C(C)(C)SSC1(C)C [compound 138] (Ac-[Pen]NT[Trp(7-Me)]E(NMe2)[Pen][AEF][2Nal][Thp]E(NMe2)N[3Pal][Sar]-NH2; disulfide 1-6 (inferred)) | 159 A^2 | 
CC(=O)N(C)CCCC[C@@H]1NC(=O)[C@H](Cc2c[nH]c3c(C)cccc23)NC(=O)[C@H]([C@@H](C)O)NC(=O)[C@H](CC(=O)N(C)C)NC(=O)[C@@H](NC(=O)CCOCCOCC[N+](C)(C)C)C(C)(C)SSC(C)(C)[C@@H](C(=O)N[C@@H](Cc2ccc(OCCN)cc2)C(=O)N[C@@H](Cc2ccc3ccccc3c2)C(=O)NC2(C(=O)N[C@@H](CCN(C)C(C)=O)C(=O)N[C@@H](CC(N)=O)C(=O)N[C@@H](Cc3cccnc3)C(=O)N(C)CC(=O)N(C)C)CCC(F)(F)C2)NC1=O (single isomer, unassigned) [compound 180, cPEG3aCO-Pen(3)-N(N(Me)2)-T-7MeW-K(NMeAc)-Pen(3)-AEF-2Nal-diFCpx-Dab(NMeAc)-N-3Pya-Sar-CON(Me)2] |  | 150.1 Å^2
CC(=O)NCCCC[C@@H]1NC(=O)[C@H](Cc2c[nH]c3c(C)cccc23)NC(=O)[C@H]([C@@H](C)O)NC(=O)[C@H](CC(N)=O)NC(=O)[C@@H](NC(C)=O)C(C)(C)SSC(C)(C)[C@@H](C(=O)N[C@@H](Cc2ccc(OCCN)cc2)C(=O)N[C@@H](Cc2ccc3ccccc3c2)C(=O)N[C@@](C)(CCCCN)C(=O)N[C@@H](CCCCNC(C)=O)C(=O)N[C@@H](CC(N)=O)C(=O)N[C@@H](C(=O)N(C)[C@H](Cc2ccc(O)cc2)C(N)=O)[C@H](C)O)NC1=O [compound 15, MeCO-Pen(3)-N-T-7MeW-K(Ac)-Pen(3)-AEF-2Nal-aMeK-K(Ac)-N-t-NMeDTyr-CONH2] (Ac-[Pen]NT[Trp(7-Me)]K(Ac)[Pen][AEF][2Nal][αMeK]K(Ac)N[dT][dNMeY]-NH2; disulfide 1-6 (inferred)) | 168 A^2 | 
CC(=O)NCCCC[C@@H]1NC(=O)[C@H](Cc2c[nH]c3c(C)cccc23)NC(=O)[C@H]([C@@H](C)O)NC(=O)[C@H](CC(N)=O)NC(=O)[C@@H](NC(=O)[C@@H](CCCCNC(=O)CCOCCOCC[N+](C)(C)C)NC(C)=O)C(C)(C)SSC(C)(C)[C@@H](C(=O)N[C@@H](Cc2ccc(OCCN)cc2)C(=O)N[C@@H](Cc2ccc3ccccc3c2)C(=O)NC2(C(=O)N[C@@H](CCCCNC(C)=O)C(=O)N[C@@H](CC(N)=O)C(=O)N[C@@H](Cc3cccnc3)C(=O)N(C)CC(N)=O)CCOCC2)NC1=O [compound 88] (Ac-[dK](Me3N+(CH2)2O(CH2)2O(CH2)2CO)[Pen]NT[Trp(7-Me)]K(Ac)[Pen][AEF][2Nal][Thp]K(Ac)N[3Pal][Sar]-NH2; disulfide 2-7) | 158 A^2 | 
CC(=O)N[C@@H]1C(=O)N[C@@H](CC(N)=O)C(=O)N[C@@H]([C@@H](C)O)C(=O)N[C@@H](Cc2c[nH]c3c(C)cccc23)C(=O)N[C@@H](CCCCN(C)C(C)=O)C(=O)N[C@H](C(=O)N[C@@H](Cc2ccc(OCCN)cc2)C(=O)N[C@@H](Cc2ccc3ccccc3c2)C(=O)NC2(C(=O)N[C@@H](CCCCN(C)C(C)=O)C(=O)N[C@@H](CC(N)=O)C(=O)N[C@@H](Cc3cccnc3)C(=O)N(C)CC(N)=O)CCOCC2)C(C)(C)SSC1(C)C [compound 280] (Ac-[Pen]NT[Trp(7-Me)][Lys(Me)](Ac)[Pen][AEF][2Nal][Thp][Lys(Me)](Ac)N[3Pal][Sar]-NH2; disulfide 1-6 (inferred)) | 167 A^2 | 
CC(=O)N(C)CCCC[C@@H]1NC(=O)[C@H](Cc2c[nH]c3c(C)cccc23)NC(=O)[C@H]([C@@H](C)O)NC(=O)[C@H](CC(=O)N(C)C)NC(=O)[C@@H](NC(=O)CCOCCOCC[N+](C)(C)C)C(C)(C)SSC(C)(C)[C@@H](C(=O)N[C@@H](Cc2ccc(OCCOCCOCC[N+](C)(C)C)cc2)C(=O)N[C@@H](Cc2ccc3ccccc3c2)C(=O)NC2(C(=O)N[C@@H](CCN(C)C(C)=O)C(=O)N[C@@H](CC(N)=O)C(=O)N[C@@H](Cc3cccnc3)C(=O)N(C)CC(=O)N(C)C)CCOCC2)NC1=O [compound 209, cPEG3aCO-Pen(3)-N(N(Me)2)-T-7MeW-K(NMeAc)-Pen(3)-APEG3F-2Nal-THP-Dab(NMeAc)-N-3Pya-Sar-CON(Me)2] ({Me3N+(CH2)2O(CH2)2O(CH2)2CO}-[Pen]D(NMe2)T[Trp(7-Me)][Lys(Me)](Ac)[Pen]Y(CH2CH2OCH2CH2OCH2CH2NMe3+)[2Nal][Thp][Dab(NMeAc)]N[3Pal][Sar]-NMe2; disulfide 1-6) | 139 A^2 | 
CC(=O)N[C@H](CCCC[N+](C)(C)C)C(=O)N[C@@H]1C(=O)N[C@@H](CC(=O)N(C)C)C(=O)N[C@@H]([C@@H](C)O)C(=O)N[C@@H](Cc2c[nH]c3c(C)cccc23)C(=O)N[C@@H](CCCCN(C)C(C)=O)C(=O)N[C@H](C(=O)N[C@@H](Cc2ccc(OCCOCCOCC[N+](C)(C)C)cc2)C(=O)N[C@@H](Cc2ccc3ccccc3c2)C(=O)NC2(C(=O)N[C@@H](CCCCN(C)C(C)=O)C(=O)N[C@@H](CC(N)=O)C(=O)N[C@@H](Cc3cccnc3)C(=O)N(C)CC(=O)N(C)C)CCOCC2)C(C)(C)SSC1(C)C [compound 216, MeCO-k(Me)3-Pen(3)-N(N(Me)2)-T-7MeW-K(NMeAc)-Pen(3)-APEG3F-2Nal-THP-K(NMeAc)-N-3Pya-Sar-CON(Me)2] (Ac-[dLys(Me3)][Pen]D(NMe2)T[Trp(7-Me)][Lys(Me)](Ac)[Pen]Y(CH2CH2OCH2CH2OCH2CH2NMe3+)[2Nal][Thp][Lys(Me)](Ac)N[3Pal][Sar]-NMe2; disulfide 2-7) | 141 A^2 | 
CC(=O)NCCCC[C@@H]1NC(=O)[C@H](Cc2c[nH]c3c(C)cccc23)NC(=O)[C@H]([C@@H](C)O)NC(=O)[C@H](CC(N)=O)NC(=O)[C@@H](NC(C)=O)C(C)(C)SSC(C)(C)[C@@H](C(=O)N[C@@H](Cc2ccc(OCCN(C)C)cc2)C(=O)N[C@@H](Cc2ccc3ccccc3c2)C(=O)N[C@@](C)(CCCCN)C(=O)N[C@@H](CCCCNC(C)=O)C(=O)N[C@@H](CC(N)=O)C(=O)NC2(C(N)=O)CCOCC2)NC1=O [compound 31] (Ac-[Pen]NT[Trp(7-Me)]K(Ac)[Pen]Y(Me2NCH2CH2)[2Nal][αMeK]K(Ac)N[Thp]-NH2; disulfide 1-6) | 158 A^2 | 
CC(=O)N[C@@H]1C(=O)N[C@@H](CCNC(=N)N)C(=O)N[C@@H]([C@@H](C)O)C(=O)N[C@@H](Cc2c[nH]c3c(C)cccc23)C(=O)N[C@@H](CCCCN(C)C(C)=O)C(=O)N[C@H](C(=O)N[C@@H](Cc2ccc(OCCOCCOCC[N+](C)(C)C)cc2)C(=O)N[C@@H](Cc2ccc3ccccc3c2)C(=O)NC2(C(=O)N[C@@H](CCCCN(C)C(C)=O)C(=O)N[C@@H](CC(N)=O)C(=O)N[C@@H](Cc3cccnc3)C(=O)N(C)CC(=O)N(C)C)CCOCC2)C(C)(C)SSC1(C)C [compound 412] (Ac-[Pen][Agb]T[Trp(7-Me)][Lys(Me)](Ac)[Pen]Y(CH2CH2OCH2CH2OCH2CH2NMe3+)[2Nal][Thp][Lys(Me)](Ac)N[3Pal][Sar]-NMe2; disulfide 1-6) | 157 A^2 | 
